This is an account of results in patent US10420733B2, “Transdermal delivery system containing methylphenidate or its salts and methods thereof” (TAHO Pharmaceuticals Ltd., priority 2016, dated 2019).

A short description of this data set: Maximum amount of methylphenidate dissolved in various adhesives. In kind it is physicochemical. On the procedure:
Various adhesives were tested to determine the maximum amount of methylphenidate could be dissolved.

As for `COC(=O)C(c1ccccc1)C1CCCCN1` (stereo not shown) [methylphenidate, a-phenyl-2-piperidineacetic acid methyl ester], the “solubility in Duro Tak 87-6911” value is given as “highly soluble”.
